A short description of data set [1]: LNP size and polydispersity index by Malvern Zetasizer dynamic light scattering (CA HA modFlu mRNA LNPs). The class given is physicochemical. As to conditions: DLS; for Size (nm): LNP of the ionizable lipid:cholesterol:DSPC:ALC-0159 about 46.3:42.7:9.4:1.6, N:P about 6:1, CA HA modFlu mRNA; for PDI: LNP with CA HA modFlu mRNA. The method, then: (§1) Lipid nanoparticles were prepared and tested according to the general procedures described in U.S. Pat. No. 9,737,619 (PCT Pub. No. WO2015/199952) and U.S. Pat. No. 10,166,298 (PCT Pub. No. WO 2017/075531) and PCT Pub. No. WO2020/146805. The novel ionizable lipids of the invention, cholesterol, distearoylphosphatidylcholine (DSPC) and ALC-0159 2-[(polyethylene glycol)-2000]-N,N ditetradecylacetamide were solubilized in ethanol at a molar ratio of about 46.3:42.7:9.4:1.6. Lipid nanoparticles were made by mixing the lipids containing organic phase with the mRNA containing aqueous phase using an N:P ratio of about 6:1. The mRNA was diluted in buffer. Syringe pumps were used to mix the ethanolic lipid solution with the mRNA aqueous solution. The ethanol was then removed, and the external buffer replaced with another buffer (e.g., Tris) by dialysis. Finally, the lipid nanoparticles were filtered.
(§2) Total RNA concentration and encapsulation efficiency was assessed using the RiboGreen RNA quantitation assay. RNA integrity pre and post formulation was monitored by Agilent Fragment Analyzer capillary gel electrophoresis. Malvern Zetasizer dynamic light scattering (DLS) was used to determine LNP size and polydispersity index (PDI). In vitro expression of the novel ionizable lipid nanoparticles was assessed in HEK293F and Hela cells similar to described in Example 72. Nuclear count and identification of cells stained positive for gene of interest was done on an Opera Phenix high content imager (PerkinElmer, USA).

Data set [2] in a line: Encapsulation efficiency, RiboGreen RNA quantitation assay (CA HA modFlu mRNA LNPs). Format: physicochemical. As to conditions: LNP with CA HA modFlu mRNA. As for the experimental part: as §1, §2
In data set [3] the test system is HEK293F cells. The data set is described as follows: In vitro expression of novel ionizable lipid nanoparticles, high content imaging (CA HA modFlu mRNA). Format: cell-based. As to conditions: LNP with CA HA modFlu mRNA. As for the experimental part:
(§3) Plated Hek293T or Hela cells were dosed with lipid nanoparticles in a total volume of 40 μl cell culture media and incubated overnight at 37° C. and 5% CO2. After fixation with 4% paraformaldehyde in PBS cells were washed in PBS containing 0.3% Triton-X100 and 3% BSA (w/v), followed by nuclear staining with Hoechst and antibody staining for the encoded gene of interest. Nuclear count and identification of cells stained positive for gene of interest was done on an Opera Phenix high content imager (PerkinElmer, USA).
as §1, §2

Data set [4] deals with Hela cells. The data set is described as above. The class given is cell-based. As to conditions: LNP with CA HA modFlu mRNA. As for the experimental part:
as §3, §1, §2

As to `CCCCCCCC(CCCCCCC)C(=O)O[C@H]1CC2(CCN(CCCCO)CC2)C[C@@H]1OC(=O)C(CCCCCCC)CCCCCCC` (single isomer, unassigned) [Example 58, (2S*,3S*)-8-(4-hydroxybutyl)-8-azaspiro[4.5]decane-2,3-diyl bis(2-heptylnonanoate)], in data set [1], the “Size (nm)” value came out at 79 nm and the PDI amounted to 0.125. For the same molecule, in data set [2], the EE % came to 98%. For the same molecule, in data set [3], the “EC50 Hek293F (ng/well)” value came to 1.6 ng/well. Also, in data set [4], the “EC50 Hela (ng/well)” value was 1.7 ng/well.
The corresponding values for `CCCCCCCCC(C(=O)OCC(COC(=O)C(CCCCCCCC)C1CCC1)N1CCC2(CCN(CCCCO)CC2)CC1)C1CCC1` (centres unmarked) [Example 4, 2-(9-(4-hydroxybutyl)-3,9-diazaspiro[5.5]undecan-3-yl)propane-1,3-diyl bis(2-cyclobutyldecanoate)] are 97 nm, 0.170, 98%, 46.9 ng/well and more than 50 ng/well.
The matching figures for `CCCCCCCCC(CCCCCC)C(=O)OCC(COC(=O)C(CCCCCC)CCCCCCCC)N1CCC2(CCN(CCCCCO)CC2)CC1` (centres unmarked) [Example 5, 2-(9-(5-hydroxypentyl)-3,9-diazaspiro[5.5]undecan-3-yl)propane-1,3-diyl bis(2-hexyldecanoate)]: 136 nm, 0.040, 100%, 1.32 ng/well and 4.3 ng/well.
As for `CCCCCCCCC(CCCCCC)C(=O)OCC(COC(=O)C(CCCCCC)CCCCCCCC)N1CCC2(CCN(CCCCO)C2)CC1` (centres unmarked) [Example 6, 2-(2-(4-hydroxybutyl)-2,8-diazaspiro[4.5]decan-8-yl)propane-1,3-diyl bis(2-hexyldecanoate)], in data set [1], the “Size (nm)” value is reported as 133 nm and the PDI was found to be 0.080. Besides, in data set [2], the EE % came out at 100%. Further, the “EC50 Hek293F (ng/well)” value in data set [3] was found to be 0.42 ng/well. Further, the “EC50 Hela (ng/well)” value in data set [4] worked out at 1.1 ng/well.
The corresponding values for `CCCCCCCCCCCCCCCC(=O)OCC(COC(=O)C(CCCCCC)CCCCCCCC)N1CCC2(CCN(CCCCO)CC2)CC1` (centres unmarked) [Example 7, 3-((2-hexyldecanoyl)oxy)-2-(9-(4-hydroxybutyl)-3,9-diazaspiro[5.5]undecan-3-yl)propyl palmitate] are 84 nm, 0.130, 99%, 20.4 ng/well and 2.0 ng/well.
The matching figures for `CCCCCCCC(CCCCCCC)C(=O)OCC(COC(=O)C(CCCCCCC)CCCCCCC)N1CCC2(CCN(CCCNc3c(NC)c(=O)c3=O)CC2)CC1` [Example 8, 2-(9-(3-((2-(methylamino)-3,4-dioxocyclobut-1-en-1-yl)amino)propyl)-3,9-diazaspiro[5.5]undecan-3-yl)propane-1,3-diyl bis(2-heptylnonanoate)]: 68 nm, 0.101, 100%, 4.1 ng/well and 2.5 ng/well.
The corresponding values for `CCCCCCCCC(CCCCCC)C(=O)OCC(COC(=O)C(CCCCCC)CCCCCCCC)N1CCC2(CCN(CCCNC(=O)C3(C)CC3)CC2)CC1` (centres unmarked) [Example 9, 2-(9-(3-(1-methylcyclopropane-1-carboxamido)propyl)-3,9-diazaspiro[5.5]undecan-3-yl)propane-1,3-diyl bis(2-hexyldecanoate)] are 96 nm, 0.070, 99%, 2.6 ng/well and 4.2 ng/well.
`CCCCCCCC(CCCCCCC)C(=O)OCC(COC(=O)C(CCCCCCC)CCCCCCC)N1CCC2(CCN(CCCO)CC2)CC1` [Example 10, 2-(9-(3-hydroxypropyl)-3,9-diazaspiro[5.5]undecan-3-yl)propane-1,3-diyl bis(2-heptylnonanoate)]: in data set [1], the “Size (nm)” value was found to be 109 nm and the PDI came to 0.054. Moreover, in data set [2], the EE % amounted to 99%. Besides, the “EC50 Hek293F (ng/well)” value in data set [3] was 1.3 ng/well. In addition, the “EC50 Hela (ng/well)” value in data set [4] amounted to 1.5 ng/well.
`CCCCCCCCC(CCCCCC)C(=O)OCC(COC(=O)C(CCCCCC)CCCCCCCC)N1CCC2(CCN(CCCNS(=O)(=O)CC)CC2)CC1` (centres unmarked) [Example 11, 2-(9-(3-(ethylsulfonamido)propyl)-3,9-diazaspiro[5.5]undecan-3-yl)propane-1,3-diyl bis(2-hexyldecanoate)]: in data set [1], the “Size (nm)” value amounted to 121 nm and the PDI is reported as 0.080. This molecule also showed an EE % in data set [2] of 99%. Moreover, in data set [3], the “EC50 Hek293F (ng/well)” value was 3.7 ng/well. The “EC50 Hela (ng/well)” value in data set [4] came out at 13.8 ng/well.
The corresponding values for `CCCCCCCC(CCCCCCC)C(=O)OCC(COC(=O)C(CCCCCCC)CCCCCCC)N1CCC2(CCN(CCCCO)C2)C1` (centres unmarked) [Example 12, 2-(7-(4-hydroxybutyl)-2,7-diazaspiro[4.4]nonan-2-yl)propane-1,3-diyl bis(2-heptylnonanoate)] are 105 nm, 0.042, 100%, 0.22 ng/well and 0.44 ng/well.
The corresponding values for `CCCCCCCC(CCCCCCC)C(=O)OCC(COC(=O)C(CCCCCCC)CCCCCCC)N1CC2(CCN(CCCCO)CC2)C1` [Example 13, 2-(7-(4-hydroxybutyl)-2,7-diazaspiro[3.5]nonan-2-yl)propane-1,3-diyl bis(2-heptylnonanoate)] are 131 nm, 0.086, 99%, 0.36 ng/well and 1.6 ng/well.
On to `CCCCCCCC(CCCCCCC)C(=O)OCC(COC(=O)C(CCCCCCC)CCCCCCC)N1CCC2(CCN(CCCCO)CC2)C1` [Example 14, 2-(8-(4-hydroxybutyl)-2,8-diazaspiro[4.5]decan-2-yl)propane-1,3-diyl bis(2-heptylnonanoate)], for which, in data set [1], the “Size (nm)” value is given as 114 nm and the PDI is 0.036. Also, the EE % in data set [2] is 100%. Moreover, in data set [3], the “EC50 Hek293F (ng/well)” value is on record as 1.5 ng/well. The “EC50 Hela (ng/well)” value in data set [4] was 2.5 ng/well.
The matching figures for `CCCCCCCCC(CCCCCC)C(=O)OCCC(CCOC(=O)C(CCCCCC)CCCCCCCC)N1CCC2(CCN(CCCCO)CC2)CC1` (centres unmarked) [Example 15, 3-(9-(4-hydroxybutyl)-3,9-diazaspiro[5.5]undecan-3-yl)pentane-1,5-diyl bis(2-hexyldecanoate)]: 110 nm, 0.120, 100%, 4.0 ng/well and 2.7 ng/well.
The corresponding values for `CCCCCCCCC(CCCCCC)C(=O)OCC(COC(=O)C(CCCCCC)CCCCCCCC)N1CCC2(CCN(CCCCCO)C2)C1` (centres unmarked) [Example 16, 2-(7-(5-hydroxypentyl)-2,7-diazaspiro[4.4]nonan-2-yl)propane-1,3-diyl bis(2-hexyldecanoate)] are 134 nm, 0.090, 99%, 0.11 ng/well and 0.18 ng/well.
With `CCCCCCCCC(CCCCCC)C(=O)OCC(COC(=O)C(CCCCCC)CCCCCCCC)N1CCC2(CCN(CCCCCO)C2)CC1` (centres unmarked) [Example 17, 2-(2-(5-hydroxypentyl)-2,8-diazaspiro[4.5]decan-8-yl)propane-1,3-diyl bis(2-hexyldecanoate)], in data set [1], the “Size (nm)” value amounted to 149 nm and the PDI came out at 0.053. Also, the EE % in data set [2] was determined as 100%. Besides, the “EC50 Hek293F (ng/well)” value in data set [3] worked out at 0.64 ng/well. For the same molecule, in data set [4], the “EC50 Hela (ng/well)” value was 1.3 ng/well.
The corresponding values for `CCCCCCCC(CCCCCCC)C(=O)OCC(COC(=O)C(CCCCCCC)CCCCCCC)N1CC2(CCN(CCCCCO)CC2)C1` [Example 18, 2-(7-(5-hydroxypentyl)-2,7-diazaspiro[3.5]nonan-2-yl)propane-1,3-diyl bis(2-heptylnonanoate)] are 149 nm, 0.060, 99%, 0.57 ng/well and 1.4 ng/well.

Values taken from patent US20250367129A1, “Lipid Compounds and Uses Thereof” (Pfizer Inc., priority 2022, published 2025).
